{"source": "paper PMC9745799", "about": "“Polymyxin Stereochemistry and Its Role in Antibacterial Activity and Outer Membrane Disruption” (ACS Infectious Diseases, 2022)", "format_in_all_cases": "cell-based", "key": {"K. pneumoniae ATCC 13883": {"system": "K. pneumoniae ATCC 13883", "details": "K. pneumoniae ATCC 13883", "experimental": "(§1) MICs of compounds were determined following CLSI guidelines using the microbroth dilution method in polypropylene plates. Selected Gram-negative bacterial strains (see Table S2 for strain sources) were taken from glycerol stocks and grown overnight on blood agar. Individual colonies were selected and grown in Tryptic Soy Broth (TSB) to an OD600 of 0.5. Compounds were diluted in Mueller Hinton Broth (MHB) supplemented with Mg^2+ and Ca^2+ at final concentrations of 12 and 20 mg/L, respectively (CAMHB). 50 μL was used for each well, and compounds were assessed in triplicates. Bacterial culture was diluted in CAMHB to 10^6 CFU/mL, yielding 5 × 10^5 CFU/mL upon addition of 50 μL of culture to 50 μL of compound solution. Positive and negative (sterility) controls were present on each plate. Plates were sealed with a semipermeable membrane and incubated for 22 h (A. baumannii) or 18 h (other strains) under shaking at 37 °C."}, "P. aeruginosa ATCC 27853": {"system": "P. aeruginosa ATCC 27853", "details": "P. aeruginosa ATCC 27853; CLSI microbroth dilution, CAMHB, 18 h, 37 °C, triplicate", "experimental": "as §1"}, "E. coli ATCC 25922": {"system": "E. coli ATCC 25922", "details": "E. coli ATCC 25922", "experimental": "as §1"}, "E. coli BW25113": {"system": "E. coli BW25113", "details": "E. coli BW25113; CLSI microbroth dilution, CAMHB, 18 h, 37 °C, triplicate", "experimental": "as §1"}, "P. aeruginosa 2018-007": {"system": "P. aeruginosa 2018-007", "details": "P. aeruginosa 2018-007; CLSI microbroth dilution, CAMHB, 18 h, 37 °C, triplicate", "experimental": "as §1"}, "A. baumannii ATCC 19606": {"system": "A. baumannii ATCC 19606", "details": "A. baumannii ATCC 19606", "experimental": "as §1"}}, "note": "Positions of bridges follow the written chain, without caps; N, C: chain ends. Non-standard residues stand in square brackets, D forms with d. Residues, ends and D or L forms follow the SMILES beside them. *: point of attachment. dDab = NCC[C@@H](N)C(=O)O; Heptanoyl = CCCCCCC(=O)*"}
{"smiles": "CCCCCCC(=O)N[C@H](CCN)C(=O)N[C@@H](C(=O)N[C@H](CCN)C(=O)N[C@@H]1CCNC(=O)[C@@H]([C@H](C)O)NC(=O)[C@@H](CCN)NC(=O)[C@@H](CCN)NC(=O)[C@@H](CC(C)C)NC(=O)[C@H](Cc2ccccc2)NC(=O)[C@@H](CCN)NC1=O)[C@H](C)O", "note": "[ent-PmxB4] (Heptanoyl-[dDab][dT][dDab][dDab][dDab]F[dL][dDab][dDab][dT]; lactam 4-C)", "values": [{"measurement": "MIC in presence of PMBN", "setting": "K. pneumoniae ATCC 13883; + PMBN (8 ug/mL)", "value": "> 128", "unit": "µg/mL"}, {"measurement": "MIC in presence of SPR741", "setting": "K. pneumoniae ATCC 13883; + SPR741 (8 ug/mL)", "value": "> 128", "unit": "µg/mL"}, {"measurement": "MIC", "setting": "K. pneumoniae ATCC 13883; CLSI microbroth dilution, CAMHB, 18 h, 37 °C, triplicate", "value": ">128", "unit": "µg/mL"}, {"measurement": "MIC", "setting": "P. aeruginosa ATCC 27853", "value": ">128", "unit": "µg/mL"}, {"measurement": "MIC in presence of PMBN", "setting": "E. coli ATCC 25922; + PMBN (8 ug/mL)", "value": 128, "unit": "µg/mL"}, {"measurement": "MIC in presence of SPR741", "setting": "E. coli ATCC 25922; + SPR741 (8 ug/mL)", "value": 128, "unit": "µg/mL"}, {"measurement": "MIC", "setting": "E. coli BW25113", "value": ">128", "unit": "µg/mL"}, {"measurement": "MIC", "setting": "P. aeruginosa 2018-007", "value": ">128", "unit": "µg/mL"}, {"measurement": "MIC in presence of PMBN", "setting": "A. baumannii ATCC 19606; + PMBN (8 ug/mL)", "value": "> 128", "unit": "µg/mL"}, {"measurement": "MIC in presence of SPR741", "setting": "A. baumannii ATCC 19606; + SPR741 (8 ug/mL)", "value": "> 128", "unit": "µg/mL"}, {"measurement": "MIC", "setting": "A. baumannii ATCC 19606; CLSI microbroth dilution, CAMHB, 22 h, 37 °C, triplicate", "value": ">128", "unit": "µg/mL"}]}
